Laboratory results from US20150107993A1, “METHODS AND APPARATUSES FOR […] POLLUTION” (Transfert Plus, s.e.c., priority 2012, published 2015).

Key:
[1] = test system: green algae Chlamydomonas reinhardtii (CC-125); assay: Algal fluorescence inhibition (Vj) measured with the commercial Handy-PEA fluorometer; type: cell-based; settings: Handy-PEA commercial system, 1×10^6 cell/ml algal culture, same experimental conditions, read-out: concentration of DCMU inhibiting 50% of the algae photochemistry (EC50), evaluated with Vj
Experimental: According to the experimental evaluation using the test apparatus, pollutant detection measurements, a 1×10^6 cell/ml green algal culture was used. Different concentrations of Diuron or DCMU (3(3,4-dichlorophenyl)-1,1-dimethylurea from Aldrich) were prepared in pure ethanol. For each measurement, 30 μL of DCMU was mixed with 2 mL of algal solution. The mixtures were exposed for 30 min under a 100 μmol·m-2·s-1 light intensity, and then dark adapted for 15 min before being injected into the microfluidic chip with a syringe pump to fully fill a microfluidic chamber (around 10 μL). Algal exposure to ethanol concentration used in this study (without DCMU) had no effect on the fluorescence measurements (data not shown). Each measurement was replicated three times. […]
According to the experimental evaluation using the test apparatus, Handy-PEA fluorometer (Hansatech Ltd.) was used as the commercial available equipment to be compared with the microfluidic sensor. […] Fluorescence emission was detected for wavelengths over 700 nm.
According to the experimental evaluation using the test apparatus, from this kinetic of the fluorescence signal, it is possible to extract several parameters representing physiological processes. […] The relative variable fluorescence at 2 ms Vj is very sensitive to Diuron as it is proportional to reaction centers closed at 2 ms. […]

Algae culture CC125 = assay: Oxygen concentration measurement with the nanofilament electrical detector in a microfluidic channel; type: cell-based, Chlamydomonas reinhardtii; settings: 1 μM Diuron; CC125 5M cell/ml; -0.6V between working and reference electrode
Experimental: According to an experimental evaluation, in order to measure the oxygen level, the electrodes making up the electrical detector are integrated in a glass microfluidic channel, and aligned on an OLED. Algae culture CC125 (5M cell/ml concentration) is injected in the microfluidic channel, the oxygen measure being continuously taken through applying-0.6V between the working electrode and the reference electrode. A Diuron concentration of 1 uM is added to the algae culture before the injection into the chip and the measuring. Standard measures of 1 uM of pollutant were made in triplicate.
Oxygen variation of algae, which is the combination of both production and breathing of algae, can therefore be linked to the pollutant concentration contained in the analyte. In order to measure oxygen production, this detector is also composed of the same organic light source used by the fluorescence detector (OLED.
FIG. 22A refers to oxygen concentration levels measured with the electrical detector for 1 μM of Diuron and with a reference (that has not been exposed to Diuron).

[2] = test system: green algae Chlamydomonas reinhardtii (CC-125); assay: Algal fluorescence inhibition (F25m) measured with the microfluidic OLED/OPD test apparatus; type: cell-based; settings: 1×10^6 cell/ml algal culture
Experimental: According to an experimental evaluation using the test apparatus, green algae Chlamydomonas reinhardtii (CC-125) was cultivated in 250 mL Erlenmeyer flasks in High Salt Medium (HSM) with the adjusted pH=6.8±0.1. The algae were grown at 25° C. under a light intensity of 100 μmol·m-2·s-1 provided by white-light neon lamps and a 16 h-light/8 h-dark cycle. Cells were maintained continuously in the mid-exponential growth phase (up to 4×10^6 cell/ml) before experiments. To measure the minimum density of algae that can be detected, successive dilutions of a 3×10^6 cell/ml algal culture were prepared in HSM. These solutions were dark adapted for 15 min before fluorescence measurement in order to reoxidize photosystem II reaction centers.
According to the experimental evaluation using the test apparatus, pollutant detection measurements, a 1×10^6 cell/ml green algal culture was used. […] Algal exposure to ethanol concentration used in this study (without DCMU) had no effect on the fluorescence measurements (data not shown). […]
It was noticed that the injection of the pollutant changes fluorescence kinetics. An increase in the fluorescence signal for the first 100 ms, proportional to the pollutant concentration was observed. DCMU induced this fluorescence increase because it blocks the electron transfer in PSII. […]

CN(C)C(=O)Nc1ccc(Cl)c(Cl)c1 [Diuron, 3(3,4-dichlorophenyl)-1,1-dimethylurea]
EC50 [1]: 220 nM | decrease in total oxygen production from algae (Algae culture CC125): about 26% | lowest concentration tested that gave a significant difference with the control algae for the Finh parameter ([2]; 30 min of light exposure): 7.5 nM | EC50 ([2]; Chlamydomonas reinhardtii, test apparatus, 30 min light exposure, 15 min dark adaptation, read-out: concentration of DCMU inhibiting 50% of the algae photochemistry (EC50), evaluated with F25m): 11 nM
